Assay results published in patent US20230089867A1, “CYCLIC PENTAMER COMPOUNDS AS PROPROTEIN CONVERTASE SUBTILISIN/KEXIN TYPE 9 (PCSK9) INHIBITORS FOR THE TREATMENT OF METABOLIC DISORDER” (Novartis AG, priority 2018, published 2023).
Like-named read-outs stand apart in the source and are kept apart here.

Target: human PCSK9 (Homo sapiens, UniProt Q8NBP7)
Assay: PCSK9 ligand binding TR-FRET assay (interference with binding of human PCSK9 to human LDLR)
Details: for Max % inhibition: PCSK9 FRET assay, efficacy (Amax), 100% = 1 uM unlabeled human PCSK9, 0% = DMSO
Description: The PCSK9 binding of the compounds of the disclosure were measured using a time resolved fluorescence resonance energy transfer (TR-FRET) assay. This time resolved fluorescence resonance energy transfer (TR-FRET) assay measures the ability of a compound of the present disclosure to interfere with the binding of human PCSK9 to human LDLR, providing measures of both potency (IC50) and efficacy (Amax).
These solutions were pipetted into columns 1 and 11 of the compound plate. Threefold serial dilutions were generated in columns 2-10 and 12-20 of the compound plate by transferring 10 uL into 20 uL of DMSO. Columns 21 and 22 of the compound plate were negative controls containing DMSO alone.
An intermediate plate was generated in a Greiner V bottom plate by transferring 8 uL from each well of the master plate into a corresponding well containing 92 uL of assay buffer and mixing thoroughly.
A Proxi plate-low volume assay plate was used for the assay. […] For the positive control wells in columns 23 and 24 of the plate, 5 uL of unlabeled human PCSK9 was added at 4 uM in assay buffer containing 8% DMSO. Following a 30 minute incubation, 5 uL of 4 nM Human LDLR extracellular domain-Europium Kryptate was added and the mixture was incubated for an additional 2 hours.
The FRET ratio (FRET/Europium) was used for calculations.
Data is expressed as percent inhibition: (value−0%)/(100%−0%).

[1] = TR-FRET, human PCSK9 Alexa Fluor 647 / human LDLR extracellular domain-Europium Kryptate, read-out: PCSK9 FRET Assay IC50

| Compound | IC50 [nM] | Max % inhibition [%] | IC50 [1] [nM] |
| --- | --- | --- | --- |
| COC[C@@H]1NC(=O)[C@H](C)N(Cc2ccc(Cl)cc2Oc2ccc(-c3cncc(C4CCC(NCCF)CC4)c3)cc2)C(=O)C[C@@H](Cc2ccccc2)C(=O)N(C)[C@@H](C)CNC(=O)C[C@H](Cc2ccc(Cl)cc2)N(C)C1=O (stereo partly drawn) | 2.7 | – | – |
| COC[C@@H]1NC(=O)[C@H](C)N(Cc2ccc(Cl)cc2Oc2ccc(-c3cncc(C4CCN(CCF)CC4)c3)cc2)C(=O)C[C@@H](Cc2ccccc2)C(=O)N(C)[C@@H](C)CNC(=O)C[C@H](Cc2ccc(Cl)cc2)N(C)C1=O | 3.2 | – | – |
| COC[C@@H]1NC(=O)C(C)N(Cc2ccc(Cl)cc2Oc2ccc(-c3cnc(CN(C)C)n3C)cc2)C(=O)C[C@@H](Cc2ccccc2)C(=O)N(C)[C@H]2CCCC[C@@H]2NC(=O)C[C@H](Cc2ccc(Cl)cc2)N(C)C1=O (single isomer, unassigned) [Compound 58] | – | 103.43 | 9.3 |
| COC[C@@H]1NC(=O)[C@H](CCN)N(Cc2ccc(Cl)cc2Oc2ccc(-c3cnc(CN(C)C)n3C)cc2)C(=O)C[C@@H](Cc2ccccc2)C(=O)N(C)[C@H]2CCCC[C@@H]2NC(=O)C[C@H](Cc2ccc(Cl)cc2)N(C)C1=O (single isomer, unassigned) [Compound 109] | – | 76.18 | 7.6 |
| COC[C@@H]1NC(=O)C(CCN)N(Cc2ccc(Cl)cc2Oc2ccc(-c3cnc(CN(C)C)n3C)cc2)C(=O)C[C@@H](Cc2ccccc2)C(=O)N(C)[C@H]2CCCC[C@@H]2NC(=O)C[C@H](Cc2ccc(Cl)cc2)N(C)C1=O (single isomer, unassigned) [Compound 204] | – | 83.07 | 286 |
| COC[C@@H]1NC(=O)[C@H](C)N(Cc2ccc(Cl)cc2Oc2ccc(-c3cnc(CN4CCCC4)n3C)cc2)C(=O)C[C@@H](Cc2ccccc2)C(=O)N(C)C2CCOCC2NC(=O)C[C@H](Cc2ccc(Cl)cc2)N(C)C1=O (single isomer, unassigned) [Compound 274] | – | 93.20 | 1.4 |
| COC[C@@H]1NC(=O)[C@H](C)N(Cc2ccc(Oc3ccc(-c4cnc(CN(C)C)n4C)cc3)cc2F)C(=O)C[C@@H](Cc2ccccc2)C(=O)N(C)C2CCCCC2NC(=O)C[C@H](Cc2ccc(Cl)cc2)N(C)C1=O (stereo in doubt) [Compound 15, (4S,7S,10S,14R,16aS,20aS)-14-benzyl-4-(4-chlorobenzyl)-11-(4-(4-(2-((dimethylamino)methyl)-1-methyl-1H-imidazol-5-yl)phenoxy)-2-fluorobenzyl)-7-(methoxymethyl)-5,10,16-trimethylhexadecahydrobenzo[l][1,4,7,11,14]pentaazacyclooctadecine-2,6,9,12,15(3H)-pentaone] | – | 48.77 | 331 |
| COC[C@@H]1NC(=O)[C@H](CC(=O)N2CC(C)(O)C2)N(Cc2ccc(Cl)cc2Oc2ccc(-c3cnc(CN(C)C)n3C)cc2)C(=O)C[C@@H](Cc2ccccc2)C(=O)N(C)C2CCCCC2NC(=O)C[C@H](Cc2ccc(Cl)cc2)N(C)C1=O (stereo in doubt) [Compound 52, (4S,7S,10S,14R,16aS,20aS)-14-benzyl-11-(4-chloro-2-(4-(2-((dimethylamino)methyl)-1-methyl-1H-imidazol-5-yl)phenoxy)benzyl)-4-(4-chlorobenzyl)-10-(2-(3-hydroxy-3-methylazetidin-1-yl)-2-oxoethyl)-7-(methoxymethyl)-5,16-dimethylhexadecahydrobenzo[l][1,4,7,11,14]pentaazacyclooctadecine-2,6,9,12,15(3H)-pentaone] | – | 104.32 | 1.5 |
| COC[C@@H]1NC(=O)[C@H](C)N(Cc2ccc(Cl)cc2Oc2ccc(-c3cnc(C(C)N4CCCC4)n3C)cc2)C(=O)C[C@@H](C)C(=O)N(C)[C@@H](C)CNC(=O)C[C@H](Cc2ccc(Cl)cc2)N(C)C1=O (stereo in doubt) [Compound 103, (2S,5S,8S,13S,16R)-1-(4-chloro-2-(4-(1-methyl-2-((S)-1-(pyrrolidin-1-yl)ethyl)-1H-imidazol-5-yl)phenoxy)benzyl)-8-(4-chlorobenzyl)-5-(methoxymethyl)-2,7,13,14,16-pentamethyl-1,4,7,11,14-pentaazacyclooctadecane-3,6,10,15,18-pentaone] | – | 106.00 | 10.1 |
| COC[C@@H]1NC(=O)[C@H](CC(=O)N2CC3(COC3)C2)N(Cc2ccc(Cl)cc2Oc2ccc(-c3cnc(CN(C)C)n3C)cc2)C(=O)C[C@@H](Cc2ccccc2)C(=O)N(C)C2CCCCC2NC(=O)C[C@H](Cc2ccc(Cl)cc2)N(C)C1=O (stereo in doubt) [Compound 106, (4S,7S,10S,14R,16aS,20aS)-14-benzyl-11-(4-chloro-2-(4-(2-((dimethylamino)methyl)-1-methyl-1H-imidazol-5-yl)phenoxy)benzyl)-4-(4-chlorobenzyl)-7-(methoxymethyl)-5,16-dimethyl-10-(2-oxo-2-(2-oxa-6-azaspiro[3.3]heptan-6-yl)ethyl)hexadecahydrobenzo[l][1,4,7,11,14]pentaazacyclooctadecine-2,6,9,12,15(3H)-pentaone] | – | 106.45 | 2 |
| C[C@H]1CNC(=O)C[C@H](Cc2ccc(Cl)cc2)N(C)C(=O)[C@H](CO)NC(=O)[C@H](C)N(Cc2ccccc2OCC(=O)N2Cc3cccnc3C2)C(=O)C[C@@H](Cc2ccccc2)C(=O)N1C (stereo in doubt) [Compound 143, (2S,5S,8S,13S,16R)-16-benzyl-8-(4-chlorobenzyl)-5-(hydroxymethyl)-2,7,13,14-tetramethyl-1-(2-(2-oxo-2-(5H-pyrrolo[3,4-b]pyridin-6(7H)-yl)ethoxy)benzyl)-1,4,7,11,14-pentaazacyclooctadecane-3,6,10,15,18-pentaone] | – | 49.36 | 774 |
| COC[C@@H]1NC(=O)[C@H](C)N(Cc2ccc(Cl)cc2Oc2ccc(-c3cnc(CN(C)C)n3C)cc2)C(=O)C[C@H](Cn2cccn2)C(=O)N(C)[C@H]2CCCC[C@@H]2NC(=O)C[C@H](Cc2ccc(Cl)cc2)N(C)C1=O [Compound 2, (4S,7S,10S,14R,16aS,20aS)-14-((1H-pyrazol-1-yl)methyl)-11-(4-chloro-2-(4-(2-((dimethylamino)methyl)-1-methyl-1H-imidazol-5-yl)phenoxy)benzyl)-4-(4-chlorobenzyl)-7-(methoxymethyl)-5,10,16-trimethylhexadecahydrobenzo[l][1,4,7,11,14]pentaazacyclooctadecine-2,6,9,12,15(3H)-pentaone] | – | 95.16 | 172 |
| CNCC[C@H]1C(=O)N[C@@H](COC)C(=O)N(C)[C@@H](Cc2ccc(Cl)cc2)CC(=O)N[C@H]2CCCC[C@@H]2N(C)C(=O)[C@H](Cc2ccccc2)CC(=O)N1Cc1ccc(Cl)cc1Oc1ccc(-c2cnc(CN(C)C)n2C)cc1 [Compound 3, (4S,7S,10S,14R,16aS,20aS)-14-benzyl-11-(4-chloro-2-(4-(2-((dimethylamino)methyl)-1-methyl-1H-imidazol-5-yl)phenoxy)benzyl)-4-(4-chlorobenzyl)-7-(methoxymethyl)-5,16-dimethyl-10-(2-(methylamino)ethyl)hexadecahydrobenzo[l][1,4,7,11,14]pentaazacyclooctadecine-2,6,9,12,15(3H)-pentaone] | – | 95.68 | 1.3 |
| COC[C@@H]1NC(=O)[C@H](CCCNC(=O)OC(C)(C)C)N(Cc2ccc(Cl)cc2Oc2ccc(-c3cnc(CN(C)C)n3C)cc2)C(=O)C[C@@H](Cc2ccccc2)C(=O)N(C)[C@@H](C)CNC(=O)C[C@H](Cc2ccc(Cl)cc2)N(C)C1=O [Compound 4, tert-butyl (3-((2S,5S,8S,13S,16R)-16-benzyl-1-(4-chloro-2-(4-(2-((dimethylamino)methyl)-1-methyl-1H-imidazol-5-yl)phenoxy)benzyl)-8-(4-chlorobenzyl)-5-(methoxymethyl)-7,13,14-trimethyl-3,6,10,15,18-pentaoxo-1,4,7,11,14-pentaazacyclooctadecan-2-yl)propyl)carbamate] | – | 97.50 | 2.9 |
| COC[C@@H]1NC(=O)[C@H](C)N(Cc2ccc(Cl)cc2Oc2ccc(-c3cnc(CN(C)C)n3C)cc2)C(=O)C[C@@H](C)C(=O)N(C)[C@@H](CC2CC2)CNC(=O)C[C@H](Cc2ccc(Cl)cc2)N(C)C1=O [Compound 5, (2S,5S,8S,13S,16R)-1-(4-chloro-2-(4-(2-((dimethylamino)methyl)-1-methyl-1H-imidazol-5-yl)phenoxy)benzyl)-8-(4-chlorobenzyl)-13-(cyclopropylmethyl)-5-(methoxymethyl)-2,7,14,16-tetramethyl-1,4,7,11,14-pentaazacyclooctadecane-3,6,10,15,18-pentaone] | – | 83.48 | 9.6 |
| COC[C@@H]1NC(=O)[C@H](C)N(Cc2c(OCC(F)(F)F)cc(Cl)cc2Oc2ccc(-c3cnc(CN4CCCC4)n3C)cc2)C(=O)C[C@@H](C)C(=O)N(C)[C@@H](C)CNC(=O)C[C@H](Cc2ccc(Cl)cc2)N(C)C1=O [Compound 7, (2S,5S,8S,13S,16R)-1-(4-chloro-2-(4-(1-methyl-2-(pyrrolidin-1-ylmethyl)-1H-imidazol-5-yl)phenoxy)-6-(2,2,2-trifluoroethoxy)benzyl)-8-(4-chlorobenzyl)-5-(methoxymethyl)-2,7,13,14,16-pentamethyl-1,4,7,11,14-pentaazacyclooctadecane-3,6,10,15,18-pentaone] | – | 93.00 | 9.9 |
